The values that follow come from US5352591A, “Aldolase enzyme process for making 5-azido-5-deoxy-hexulose-1-phosphate” (The Scripps Research Institute, priority 1993, dated 1994).

In test [1] the target is T1, α-L-Fucosidase (Homo sapiens, UniProt P04066).
T1 sequence (P04066 32-466): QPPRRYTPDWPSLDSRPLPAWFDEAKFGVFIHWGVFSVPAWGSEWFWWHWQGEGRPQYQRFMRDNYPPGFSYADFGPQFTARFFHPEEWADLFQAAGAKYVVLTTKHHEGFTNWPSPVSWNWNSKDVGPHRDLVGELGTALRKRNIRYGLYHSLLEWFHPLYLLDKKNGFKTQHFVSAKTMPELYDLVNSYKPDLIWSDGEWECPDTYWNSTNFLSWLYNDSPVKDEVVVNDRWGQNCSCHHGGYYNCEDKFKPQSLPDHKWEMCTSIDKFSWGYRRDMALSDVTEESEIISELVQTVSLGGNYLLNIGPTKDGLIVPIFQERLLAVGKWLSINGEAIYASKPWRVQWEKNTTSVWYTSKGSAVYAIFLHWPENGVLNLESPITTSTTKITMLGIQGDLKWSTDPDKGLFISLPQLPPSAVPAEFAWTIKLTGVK
Nature of the test: α-L-Fucosidase inhibition (fuc-pNP hydrolysis). In kind it is biochemical. Here is the method: α-L-Fucosidase activity was measured by incubating the enzyme (0.005 Units) with fuc-pNP ([…]) in 0.4 ml of 50 mM acetate buffer, pH 5.5 for 20 minutes at 25° C. in the absence and presence of the azasugars of the present invention. The reaction was stopped by the addition of 0.8 ml of 2 mM glycine buffer, pH 10.5. The amount of formed p-nitrophenol was determined by optical density spectroscopy at a wavelength of 400 nm.

The target of test [2] is T2, α-Mannosidase (jack bean) (Canavalia ensiformis, UniProt C0HJB3).
T2 construct: purchased Sigma
T2 sequence (C0HJB3 1-562 limits assumed): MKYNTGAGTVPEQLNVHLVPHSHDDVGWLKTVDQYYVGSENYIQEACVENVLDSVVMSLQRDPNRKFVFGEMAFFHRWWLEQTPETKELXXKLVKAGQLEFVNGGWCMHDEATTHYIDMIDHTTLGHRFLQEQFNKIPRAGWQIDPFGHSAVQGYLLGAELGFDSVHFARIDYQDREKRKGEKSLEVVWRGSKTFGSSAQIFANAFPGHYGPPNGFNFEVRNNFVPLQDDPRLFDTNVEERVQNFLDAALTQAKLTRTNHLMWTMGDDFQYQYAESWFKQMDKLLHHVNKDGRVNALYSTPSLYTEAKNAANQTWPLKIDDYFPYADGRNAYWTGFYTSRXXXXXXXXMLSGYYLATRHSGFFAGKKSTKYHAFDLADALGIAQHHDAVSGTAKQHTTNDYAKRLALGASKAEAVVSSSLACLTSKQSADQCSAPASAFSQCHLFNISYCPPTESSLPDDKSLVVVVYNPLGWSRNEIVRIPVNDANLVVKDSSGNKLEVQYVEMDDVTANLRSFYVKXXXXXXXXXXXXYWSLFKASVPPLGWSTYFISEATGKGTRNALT
T2 sequence (C0HJB3 563-981 limits assumed): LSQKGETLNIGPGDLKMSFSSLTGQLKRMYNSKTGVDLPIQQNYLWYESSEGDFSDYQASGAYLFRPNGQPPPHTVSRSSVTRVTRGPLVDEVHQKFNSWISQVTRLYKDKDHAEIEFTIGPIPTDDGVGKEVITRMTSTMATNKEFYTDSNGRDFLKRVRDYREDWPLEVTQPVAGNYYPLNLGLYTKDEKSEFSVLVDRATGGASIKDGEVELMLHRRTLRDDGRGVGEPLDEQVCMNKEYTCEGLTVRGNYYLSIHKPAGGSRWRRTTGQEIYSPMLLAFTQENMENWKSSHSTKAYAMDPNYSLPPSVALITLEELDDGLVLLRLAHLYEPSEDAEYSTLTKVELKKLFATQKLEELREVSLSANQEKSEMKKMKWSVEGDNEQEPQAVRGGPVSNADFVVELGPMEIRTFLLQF
Nature of the test: Inhibition of α-mannosidase. Format: biochemical. The method, then:
(§1) The following solutions were prepared for enzymatic assay:
4. α-D-Mannosidase: 5 milligrams of solid protein were suspended in I mL of 3M ammonium sulfate [(NH4)2 SO4 ] and 0.1M zinc acetate (ZnOAc).
(§2) The following illustrates the procedure in detail.

Test [3] concerns the target T3, α-Glucosidase (brewer yeast) (Saccharomyces cerevisiae, UniProt P53341).
T3 construct: purchased Sigma
Kind of test: Inhibition of α-glucosidase (Lineweaver-Burk, p-nitrophenol release). In kind it is biochemical. The settings on record: pH 6.5. Here is the method:
The following solutions were prepared for enzymatic assay: 1. […] The following illustrates the procedure in detail.

In test [4] the target is T4, β-Galactosidase (E. coli) (Escherichia coli, UniProt P00722).
T4 construct: purchased Sigma
T4 sequence (P00722 2-1024 limits assumed): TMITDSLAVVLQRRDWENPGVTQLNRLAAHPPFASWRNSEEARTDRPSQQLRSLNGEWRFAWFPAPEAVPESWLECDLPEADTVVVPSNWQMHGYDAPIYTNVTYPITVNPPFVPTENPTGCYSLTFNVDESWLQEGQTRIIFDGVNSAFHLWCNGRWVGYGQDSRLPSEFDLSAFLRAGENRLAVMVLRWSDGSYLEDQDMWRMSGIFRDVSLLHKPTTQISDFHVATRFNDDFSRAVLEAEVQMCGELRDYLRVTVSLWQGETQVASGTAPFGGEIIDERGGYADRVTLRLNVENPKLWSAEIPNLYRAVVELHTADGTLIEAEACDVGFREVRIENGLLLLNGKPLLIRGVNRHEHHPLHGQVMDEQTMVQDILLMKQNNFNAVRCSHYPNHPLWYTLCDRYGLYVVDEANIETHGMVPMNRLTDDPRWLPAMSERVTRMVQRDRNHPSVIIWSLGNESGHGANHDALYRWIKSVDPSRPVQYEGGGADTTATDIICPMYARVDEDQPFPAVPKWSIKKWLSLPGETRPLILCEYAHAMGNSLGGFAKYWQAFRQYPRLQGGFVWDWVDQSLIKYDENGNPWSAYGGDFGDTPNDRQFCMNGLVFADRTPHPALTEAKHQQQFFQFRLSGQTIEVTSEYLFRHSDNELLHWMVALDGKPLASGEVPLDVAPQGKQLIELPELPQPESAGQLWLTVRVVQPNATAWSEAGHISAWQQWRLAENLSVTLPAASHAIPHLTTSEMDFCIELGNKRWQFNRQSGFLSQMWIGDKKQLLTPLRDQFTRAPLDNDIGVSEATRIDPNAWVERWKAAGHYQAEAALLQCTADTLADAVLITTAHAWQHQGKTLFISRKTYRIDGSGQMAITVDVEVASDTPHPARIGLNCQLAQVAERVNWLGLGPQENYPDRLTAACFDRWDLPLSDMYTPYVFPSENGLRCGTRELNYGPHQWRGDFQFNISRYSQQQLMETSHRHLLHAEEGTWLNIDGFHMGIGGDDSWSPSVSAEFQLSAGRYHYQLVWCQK
Nature of the test: Inhibition of β-galactosidase. Format: biochemical. The settings on record: at 1 mM; pH 6.5. The method, then:
as §1
6. β-D-Galactosidase: 0.5 milligrams of solid protein (345 Units/milligram) were dissolved in 1 mL PIPES-NaOAc buffer solution.
as §2

Test [5] has as its target β-Glucosidase (almond). Kind of test: Inhibition of β-glucosidase. In kind it is biochemical. The settings on record: pH 6.5. Here is the method: The following solutions were prepared for enzymatic assay: 1. […] The assay enzyme solution was prepared by dissolving 20 milligrams of solid protein (4.8 Units/milligram solid) in 6 mL PIPES-NaOAc buffer solution. […] The following illustrates the procedure in detail.

Test [6] addresses T3, α-Glucosidase (brewer yeast). The settings on record: from Fleet et al., Tetrahedron Lett., 1985, 26:3127; cited from earlier work.
For test [7], the target named is T4, β-Galactosidase (E. coli). The settings on record: from Fleet et al. 1985; cited from earlier work.
Test [8] deals with T2, α-Mannosidase (jack bean). The following applies: from Fleet et al. 1985; cited from earlier work.
Test [9] has as its target β-Xylosidase (A. niger) (Aspergillus niger, UniProt O00089). The settings on record: from Fleet et al. 1985; cited from earlier work.
Test [10] has as its system glycosidases. The settings on record: Fleet et al., Tetrahedron Lett. 1985, 26, 3127; cited from earlier work.
The target of test [11] is β-Glucosidase (almond). The following applies: from Fleet et al. 1985; cited from earlier work.
For test [12], the system named is AIDS virus gp160 envelope protein precursor. The following applies: Walker et al., Proc. Natl. Acad. Sci. 1987; cited from earlier work.

Each structure is given as a SMILES string. “Also recorded” adds a separate entry of the source. Where two headings read alike, the source gives them in different places.

T3 sequence (P53341 whole entry): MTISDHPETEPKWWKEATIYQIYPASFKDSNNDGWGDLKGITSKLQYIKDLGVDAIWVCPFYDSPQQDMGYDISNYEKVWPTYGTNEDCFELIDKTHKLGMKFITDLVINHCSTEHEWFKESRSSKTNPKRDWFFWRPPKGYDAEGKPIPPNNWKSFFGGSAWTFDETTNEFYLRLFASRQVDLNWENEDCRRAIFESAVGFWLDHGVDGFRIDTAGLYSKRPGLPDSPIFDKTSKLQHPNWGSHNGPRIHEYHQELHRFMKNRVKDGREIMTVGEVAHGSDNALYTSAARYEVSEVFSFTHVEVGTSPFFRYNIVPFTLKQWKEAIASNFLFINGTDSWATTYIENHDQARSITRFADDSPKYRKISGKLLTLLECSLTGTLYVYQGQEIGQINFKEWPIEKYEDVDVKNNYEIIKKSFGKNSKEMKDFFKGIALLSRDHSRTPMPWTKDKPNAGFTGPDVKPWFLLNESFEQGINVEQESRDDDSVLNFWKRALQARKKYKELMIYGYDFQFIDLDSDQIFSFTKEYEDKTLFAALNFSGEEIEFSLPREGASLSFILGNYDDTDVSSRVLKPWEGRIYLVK
Chain of β-Xylosidase (A. niger) (O00089 27-804): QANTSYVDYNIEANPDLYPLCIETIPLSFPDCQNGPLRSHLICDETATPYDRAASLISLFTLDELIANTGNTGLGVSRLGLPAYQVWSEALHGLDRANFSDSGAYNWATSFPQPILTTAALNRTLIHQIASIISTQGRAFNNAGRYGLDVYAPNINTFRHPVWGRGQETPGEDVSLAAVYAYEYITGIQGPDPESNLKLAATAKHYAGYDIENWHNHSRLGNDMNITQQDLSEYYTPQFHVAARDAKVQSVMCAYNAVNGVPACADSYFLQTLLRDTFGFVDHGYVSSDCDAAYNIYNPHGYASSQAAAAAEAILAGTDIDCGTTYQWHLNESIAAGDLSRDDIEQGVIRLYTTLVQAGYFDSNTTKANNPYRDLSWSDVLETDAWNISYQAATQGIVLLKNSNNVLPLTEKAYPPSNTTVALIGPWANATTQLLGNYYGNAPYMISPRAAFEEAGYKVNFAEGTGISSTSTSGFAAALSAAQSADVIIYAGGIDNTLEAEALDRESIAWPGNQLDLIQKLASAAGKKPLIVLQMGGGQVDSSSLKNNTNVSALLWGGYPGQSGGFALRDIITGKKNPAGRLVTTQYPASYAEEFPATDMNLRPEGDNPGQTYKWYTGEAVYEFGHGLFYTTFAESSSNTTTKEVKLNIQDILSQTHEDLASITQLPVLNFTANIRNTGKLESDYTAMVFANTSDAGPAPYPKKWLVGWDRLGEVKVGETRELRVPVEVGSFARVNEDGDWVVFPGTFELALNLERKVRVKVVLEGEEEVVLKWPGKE

What is called Ki is a dissociation constant, usually derived from enzyme kinetics or from competition with a known ligand. Regarding `Oc1ccccc1` [phenol], the affinity in [1], expressed as Ki, was 180 ± 20 µM. Moreover, the “type of inhibition of fucosidase” value in test [1] (versus fuc-pNP) is given as “noncompetitive inhibitor”.

As to `C[C@@H]1OC(O)[C@@H](O)[C@H](O)[C@@H]1O` (stereo partly drawn) [L-fucose], the “type of inhibition of fucosidase” value in test [1] (versus fuc-pNP) was “competitive inhibitor”. In addition, the inhibition constant (Ki) in test [1] (versus fuc-pNP, 50 mM acetate buffer pH 5.5, 25° C., read-out: Ki, α-L-Fucosidase inhibition) was found to be 300 µM.

On to `OC[C@@H]1N[C@H](CO)[C@@H](O)[C@@H]1O` [Compound 2, (2R,5S)-dihydroxymethyl-(3R,4R)-dihydroxypyrrolidine], for which, in test [2], the “inhibition of an α-mannosidase (in words)” value is “significant inhibition”. Also, the Ki in [2] (pH 6.5) amounted to 3100 µM; in test [3], 2.8 µM; in test [5], 19 µM. Further, the “Ki Values, β-Galactosidase (E. coli)” value in test [4] is reported as “No inhibition”.

As for `OC[C@H]1N[C@H](CO)[C@@H](O)[C@@H]1O` [Compound X, (2R,5R)-dihydroxymethyl-(3R,4R)-dihydroxypyrrolidine], the results for the Ki in test [6], in test [9] and in test [11] were 3.3 µM, 250 µM and 7.8 µM, respectively. Further, the “Ki Values, β-Galactosidase (E. coli)” value in test [7] is given as “No inhibition”. For the same molecule, the “Ki Values, α-Mannosidase (jack bean)” value in [8] was “no inhibitory activity; also recorded: no inhibition”. The “inhibition against glycosidases, including α- and β-glucosidases and β-xylosidase (in words)” value in test [10] is reported as “broad spectrum of inhibition”.

In the case of `OC1CN2CCC(O)C2C(O)C1O` (stereo not shown) [castanospermine, 1,6,7,8tetrahydroxyoctahydroindolizine], the “inhibition of processing of the AIDS virus gp160 envelope protein precursor (in words)” value in [12] is recorded as “inhibit the processing”.
